# Data taken from patent US20260109721A1, “IONIZABLE CATIONIC LIPIDS INCORPORATING SILICON: SYNTHESIS AND LNP FORMULATION” (priority 2023, published 2026).
# Experiments:
# HeLa cells [1] = assay: Transfection efficiency with GFP mRNA (Method B); type: cell-based; details: 24 h, GFP fluorescence
# Protocol: The synthesized lipids were tested in term of in vitro transfection efficacy and toxicity on HeLa cells. In order to perform the mentioned biological tests, appropriate LNPs had to be formulated from the synthesized lipids. The formulation technique was different in Method A and B. The particle size, polydispersity index (PDI) and zeta potential of resulting LNPs were determined by means of Dynamic Light Scattering technique (DLS). Prior to biological testing the encapsulation efficiency (EE) of the loaded LNPs was determined by using RiboGreen RNA assay. In case of Method A Luc mRNA while in case of Method B GFP mRNA was transfected into the cells. In parallel with the transfection experiments, toxicity of the investigated LNPs was determined, in case of Method A resazurin assay while in case of Method B MTT assay was used. Additionally, the toxicity of the lipids was investigated on HepG2 cells and IC50 values were determined.
# In 1.5 mL eppendorf: • a) Place 2.9 uL of 0.33 ug/uL mRNA solution into Eppendorf tube • b) Add 1.94 μL of supplied ethanolic solution of tested lipid and immediately mix by working pipette up-and-down several times (work the solution up and down several times before transferring to saturate pipette tip with ethanol vapors) • c) Incubate for 15 minutes. • d) Add 536 μL of MEM. Mix the solution by vortexing. • e) Incubate for 30 minutes.
# • MEM (Sigma, cat #M5650-500 mL) • Fetal Bovine Serum, FBS (Sigma, cat #F7524-500 mL) • Solutions of the formulations (see above) • Dilutor: 10 mL MEM+0,036 mL ethanol • Phosphate buffered saline, PBS
# • 1. Fill the edge wells of a 96-well plate with 100 μL media. • 2. Plate 10,000 HeLa cells per well in 96 well plate. […] Total 60 wells should be seeded. Incubate in MEM+10% FBS at 37° C. in a humidified atmosphere with 5% CO2 for 24 h. • 3. Examine under the microscope. Confluency must be at or nearly 80%. • 4. Gently remove the media (aspirate). Place 50 μL of the following formulations: • a) 6 wells with dilutor—negative control • b) 6 wells with Lipofectamine-50—positive control. • c) 6 wells with Lipofectamine-6—secondary positive control • d) 6 wells per formulations—test samples. • 5. Incubate plate for 1 hours at 37° C. • 6. Add 50 μL of MEM+20% FBS (which will become 10% upon dilution). • 7. Place plates into the incubator at 37° C. in a humidified atmosphere with 5% CO2 for 23 h (total 24 hours of incubation). • 8. After 24 h, aspirate the media without disturbing the cells. Gently wash cells with 100 μL of warm PBS. Aspirate PBS. • 9. Add 100 μL of fresh PBS into washed cells and read GFP fluorescence on the plate reader. • 10. This can be followed with viability assessment with the MTT assay. Cell Viability Assessment with MTT Assay (Method B)
# HeLa cells [2] = assay: Transfection efficiency with Luciferase (SecNLuc) mRNA, Nano-Glo assay (Method A); type: cell-based; details: Luc mRNA, 24 h, luminescence; for Transfection 10 ng mRNA: 10 ng mRNA/well; for Transfection 50 ng mRNA: 50 ng mRNA/well; for Transfection 100 ng mRNA: 100 ng mRNA/well
# Outline: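 Luminescence from secreted NanoLuc, read with Nano-Glo reagent, gave transfection efficiency 24 h after HeLa cells were dosed. Method A lipid nanoparticles delivered SecNLuc mRNA at 10, 50 or 100 ng per well in triplicate.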
Compound,Transfection 89 ng mRNA/well (HeLa cells [1]),Transfection 10 ng mRNA (HeLa cells [2]),Transfection 50 ng mRNA (HeLa cells [2]),Transfection 100 ng mRNA (HeLa cells [2])
"CCCCCCCCC(CCCCCC)C(=O)OCCCCCCN(CCCCO)CCCCCCOC(=O)C(CCCCCC)CCCCCCCC (stereo not shown) [ALC-0315, reference compound]",15892.1,2.38E+06,1.22E+07,9.34E+06
"CCCCC/C=C\C/C=C\CCCCCCCCOC(CCCCCCC/C=C\C/C=C\CCCCC)O[Si](C)(C)OCCCCCCN(CCO)CCO (stereo not shown) [Example 48, (23Z,26Z)-13-((8Z,11Z)-heptadeca-8,11-dien-1-yl)-3-(2-hydroxyethyl)-11,11-dimethyl-10,12,14-trioxa-3-aza-11-siladotriaconta-23,26-dien-1-ol]",93448.3,5.52E+02,1.65E+03,1.82E+03
"CCCCC/C=C\C/C=C\CCCCCCCCOC(CCCCCCC/C=C\C/C=C\CCCCC)O[Si](C)(C)OCCCCCCN(C)CCO (stereo not shown) [Example 56, (23Z,26Z)-13-((8Z,11Z)-heptadeca-8,11-dien-1-yl)-3,11,11-trimethyl-10,12,14-trioxa-3-aza-11-siladotriaconta-23,26-dien-1-ol]",78375.2,3.00E+00,5.63E+01,6.90E+01
"CCCCC/C=C\C/C=C\CCCCCCCCOC(CCCCCCC/C=C\C/C=C\CCCCC)O[Si](C)(C)OCCCCCCN1CCN(CCO)CC1 (stereo not shown) [Example 58, 2-(4-((20Z,23Z)-10-((8Z,11Z)-heptadeca-8,11-dien-1-yl)-8,8-dimethyl-7,9,11-trioxa-8-silanonacosa-20,23-dien-1-yl)piperazin-1-yl)ethan-1-ol]",50019.2,3.85E+02,3.92E+03,7.51E+03
"CCCCCCCC/C=C\CCCCCCCCOC(=O)C(C)(C)CC(OCCCCCCCC/C=C\CCCCCCCC)O[Si](C)(C)OCCCCCCN(C)CCCCO (stereo not shown) [Example 91, (Z)-octadec-9-en-1-yl 18-hydroxy-2,2,6,6,14-pentamethyl-4-(((Z)-octadec-9-en-1-yl)oxy)-5,7-dioxa-14-aza-6-silaoctadecanoate]",,7.02E+03,1.13E+05,7.45E+05
"CCCCCCCC/C=C\CCCCCCCCOC(=O)C(C)(C)CC(OCCCCCCCC/C=C\CCCCCCCC)O[Si](C)(C)OCCCCCCN(C)CC(O)CO (stereo not shown) [Example 92, (Z)-octadec-9-en-1-yl 1,2-dihydroxy-4,12,12,16,16-pentamethyl-14-(((Z)-octadec-9-en-1-yl)oxy)-11,13-dioxa-4-aza-12-silaheptadecan-17-oate]",,3.35E+03,3.94E+04,1.65E+05
"CCCCCCCC/C=C\CCCCCCCCOC(=O)C(C)(C)CC(OCCCCCCCC/C=C\CCCCCCCC)O[Si](C)(C)OCCCCCCN(C)CCO (stereo not shown) [Example 93, (Z)-octadec-9-en-1-yl 1-hydroxy-3,11,11,15,15-pentamethyl-13-(((Z)-octadec-9-en-1-yl)oxy)-10,12-dioxa-3-aza-11-silahexadecan-16-oate]",,2.73E+03,2.75E+04,1.19E+05
"CCCCCCCC/C=C\CCCCCCCCOC(=O)C(C)(C)CCC(OCCCCCCCC/C=C\CCCCCCCC)O[Si](C)(C)OCCCCCCN(CCO)CCO (stereo not shown) [Example 94, (Z)-octadec-9-en-1-yl 1-hydroxy-3-(2-hydroxyethyl)-11,11,16,16-tetramethyl-13-(((Z)-octadec-9-en-1-yl)oxy)-10,12-dioxa-3-aza-11-silaheptadecan-17-oate]",,7.50E+02,8.22E+03,3.14E+04
"CCCCCCCC/C=C\CCCCCCCCOC(=O)C(C)(C)CCC(OCCCCCCCC/C=C\CCCCCCCC)O[Si](C)(C)OCCCCCCN1CCOCC1 (stereo not shown) [Example 95, (Z)-octadec-9-en-1-yl 5-((dimethyl((6-morpholinohexyl)oxy)silyl)oxy)-2,2-dimethyl-5-(((Z)-octadec-9-en-1-yl)oxy)pentanoate]",,1.22E+02,5.37E+02,9.82E+02
"CCCCCCCC/C=C\CCCCCCCCOC(=O)C(C)(C)CC(OCCCCCCCC/C=C\CCCCCCCC)O[Si](C)(C)OCCCCCCN(CCO)CCN(CCO)CCCCCCO[Si](C)(C)OC(CC(C)(C)C(=O)OCCCCCCCC/C=C\CCCCCCCC)OCCCCCCCC/C=C\CCCCCCCC (stereo not shown) [Example 96, di((Z)-octadec-9-en-1-yl) 14,17-bis(2-hydroxyethyl)-2,2,6,6,25,25,29,29-octamethyl-4,27-bis(((Z)-octadec-9-en-1-yl)oxy)-5,7,24,26-tetraoxa-14,17-diaza-6,25-disilatriacontanedioate]",,3.94E+02,2.15E+03,2.94E+03
"C#CCN(C)CCCCCCO[Si](C)(C)OC(CC(C)(C)C(=O)OCCCCCCCC/C=C\CCCCCCCC)OCCCCCCCC/C=C\CCCCCCCC (stereo not shown) [Example 97, (Z)-octadec-9-en-1-yl 4,12,12,16,16-pentamethyl-14-(((Z)-octadec-9-en-1-yl)oxy)-11,13-dioxa-4-aza-12-silaheptadec-1-yn-17-oate]",,3.01E+02,1.34E+03,1.28E+03
"CCCCCCCCCCCOC(=O)CCCCCN(CCO)CCCCCCCC(=O)OC(CCCCCCCC)CCCCCCCC [SM-102, reference compound]",,2.15E+06,7.53E+06,7.61E+06
